Where two headings read alike, the source gives them in different places.
What was measured:
A3 receptor = conditions: cited from earlier work
[1] = test system: cardiac ventricular myocytes cultured from chick embryos; test: Hypoxia-induced myocyte injury, agent present during prolonged (90 min) hypoxia with glucose deprivation; type: cell-based; conditions: for cardioprotective effect when present during prolonged hypoxia (CK released, % myocytes killed): agonist present during prolonged hypoxia/simulated ischemia; for creatine kinase released during prolonged simulated ischemia: increasing concentrations, presence and absence of DPCPX (FIGS. 3A-3D)
Procedure: Ventricular cells were cultured from chick embryos 14 days in ovo as previously described (16, 23). Cells were cultivated in a humidified 5% CO2-95% air mixture at 37° C. […] The medium was changed to a HEPES-buffered medium containing (mM) 139 NaCl, 4.7 KCl, 0.5 MgCl2, 0.9 CaCl2, 5 HEPES (N-2-hydroxyethylpiperazine-N′-2-ethanesulfonic acid) and 2% fetal bovine serum, pH 7.4, 37° C. before exposing the myocytes to the various conditions at 37° C. Control myocytes were maintained in the HEPES-buffered media under room air. Ninety-minute exposure of the myocytes to hypoxia with glucose deprivation was used to induce cell injury. Hypoxia was produced by placing the cells in a hypoxic incubator (NuAire) where O2 was replaced by N2 as previously described (16,23). Effects of adenosine receptor agonists and antagonists on the extent of myocyte injury were determined by exposure of the prepared cells to these agents during the prolonged hypoxia.
(§1) Determination of myocyte injury was made at the end of the ninety-minute hypoxia, at which time myocytes were taken out of the hypoxic incubator and re-exposed to room air (normal % O2). Aliquots of the media were then obtained for creatine kinase (CK) activity measurement, which is followed by quantitation of the number of viable cells. Measurement of basal level of cell injury was made after parallel incubation of control cells under normal % O2. The extent of hypoxia-induced injury to the ventricular cell was quantitatively determined by the percentages of cells killed and by the amount of CK released into the media according to a previously described method (16, 23). […] In brief, the media were replaced with a trypsin-EDTA buffer to detach the cells, which was then followed by sedimentation of the viable myocytes. Parallel changes in % cells killed and CK released (16, 23) further validated this assay for % cells killed. The amount of CK was measured as enzyme activity (unit/mg), and increases in CK activity above the control level were determined. The percentage of cells killed was calculated as the number of cells obtained from the control group (representing cells not subjected to any hypoxia or drug treatment) minus the number of cells from the treatment group divided by number of cells in control group multiplied by 100%.

[2] = test system: cardiac ventricular myocytes cultured from chick embryos; test: as above; type: cell-based; conditions: agonist added upon reoxygenation after 90 minute hypoxia, kept one additional hour; hypoxia alone 26.5±1.0
[3] = test system: ventricular myocytes cultured from chick embryos; test: Pharmacological preconditioning: 5 min exposure to agent, then 90 min simulated ischemia; type: cell-based; conditions: for preconditioning / cardioprotective effect: agent alone, 5 min exposure before 90 min ischemia
Procedure: FIG. 14 is a graph showing that the partial A1 receptor agonist, 8-butylaminoCPA, mimics the cardioprotective effect of ischemic preconditioning. Ventricular myocytes were cultured from chick embryos 14 days in ovo. The ability of the partial A1 agonist, 8-butylaminoCPA (8-butylamino-N^6-cyclopentyladenosine), to induce preconditioning was determined. In brief, myocytes were exposed to 8-butylaminoCPA at the indicated concentrations for 5 min, incubated for 10 min with agonist-free medium, and then exposed to simulated ischemia for 90 min. The extent of myocyte injury was quantitated at the end of the 90 min period by determinating the percentage of cells killed and the amount of creatine kinase (CK) released (units per milligram of cell protein). Data are means±SE of values from five independent experiments.
as §1
Media were then replaced with fresh media, which was then followed by exposure to 90-minute simulated ischemia and the data graphed.

[4] = test system: isolated cardiac myocytes; test: Apoptotic cell death by DNA laddering on 1.5% agarose gel; type: cell-based; conditions: for apoptotic cell death (DNA laddering): 90 min ischemia and 30 min reoxygenation, 10 nM Cl-IB-MECA, 1 μM MRS1191
Procedure: Such smearing is indicative of a culmination of the apoptotic cell death pathway. Isolated cardiac myocytes were exposed to 90-min ischemia and 30-min reoxygenation (lanes 4 and 5). […] Lanes 1 and 2 represent myocytes not exposed to ischemia or any agent. Data were representative of three experiments.
Isolated cardiac myocytes were exposed to prolonged moderate simulated ischemia (17 hours with 2-3% O2). Lane 3 represents myocytes not exposed to ischemia or any agent. Lane 5 represents myocytes exposed to 17 hours of ischemia. […] Data were representative of three experiments.
Lane 3 represents myocytes not exposed to any agent. Lane 5 represents cardiac myocytes exposed (for three hours) to an agent (a P2X receptor agonist, 2-methylthioATP) known to increase intracellular calcium concentration. Prolonged exposure to 2-methylthioATP or UTP caused increased apoptosis (Lane 7). […] Data were representative of two experiments.
The effects of agents which target the adenosine receptor on apoptosis were initially examined in isolated cardiac myocytes exposed to ischemia (for 90 minutes and 30 minutes of reoxygenation) or agents which increase intracellular calcium levels. Increasing the level of intracellular calcium concentration induces non-ischemia-related apoptosis in vitro. Apoptotic cell death of cardiac myocytes was assessed by determining the extent of smearing or “DNA laddering” on 1.5% agarose gels.

A1 receptor = molecular target: T1, A1 receptor (Rattus norvegicus, UniProt P25099); conditions: Table II; cited from earlier work
T1 sequence (P25099 1-326): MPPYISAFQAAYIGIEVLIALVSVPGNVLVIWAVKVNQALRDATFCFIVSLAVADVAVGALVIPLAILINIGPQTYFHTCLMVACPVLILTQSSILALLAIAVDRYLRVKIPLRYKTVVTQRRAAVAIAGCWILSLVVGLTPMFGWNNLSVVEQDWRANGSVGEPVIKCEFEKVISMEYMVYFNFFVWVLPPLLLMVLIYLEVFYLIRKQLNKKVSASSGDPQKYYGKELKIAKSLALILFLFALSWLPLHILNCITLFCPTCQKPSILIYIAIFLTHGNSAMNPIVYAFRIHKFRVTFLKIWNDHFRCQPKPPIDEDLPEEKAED

A2a receptor = A2a receptor (Rattus norvegicus, UniProt P30543); conditions: Table II; cited from earlier work
Sequence of A2a receptor (P30543 whole entry): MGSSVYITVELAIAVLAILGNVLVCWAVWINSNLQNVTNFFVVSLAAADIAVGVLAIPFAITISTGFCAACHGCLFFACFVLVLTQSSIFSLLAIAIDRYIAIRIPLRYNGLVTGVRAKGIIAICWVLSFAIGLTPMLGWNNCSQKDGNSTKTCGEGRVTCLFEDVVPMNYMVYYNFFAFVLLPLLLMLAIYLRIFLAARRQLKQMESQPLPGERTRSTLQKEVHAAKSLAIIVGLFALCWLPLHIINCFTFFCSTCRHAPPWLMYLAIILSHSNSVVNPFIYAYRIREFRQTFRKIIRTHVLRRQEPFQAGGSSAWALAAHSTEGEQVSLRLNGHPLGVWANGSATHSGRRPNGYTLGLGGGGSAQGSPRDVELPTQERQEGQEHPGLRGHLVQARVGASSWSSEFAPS

[5] = molecular target: T2, human adenosine A3 receptor (Homo sapiens, UniProt P0DMS8); test: Preconditioning in chick atrial myocytes transfected with the human A3 receptor; type: cell-based; conditions: hA3R-transfected vs vector-transfected atrial myocytes
T2 construct: full length cDNA encoding human adenosine A3 receptor subcloned in pcDNA3; expressed in transfected cells; host or cells: chick embryo atrial myocytes, transient calcium phosphate transfection with pcDNA3/hA3R
T2 sequence (P0DMS8 1-318): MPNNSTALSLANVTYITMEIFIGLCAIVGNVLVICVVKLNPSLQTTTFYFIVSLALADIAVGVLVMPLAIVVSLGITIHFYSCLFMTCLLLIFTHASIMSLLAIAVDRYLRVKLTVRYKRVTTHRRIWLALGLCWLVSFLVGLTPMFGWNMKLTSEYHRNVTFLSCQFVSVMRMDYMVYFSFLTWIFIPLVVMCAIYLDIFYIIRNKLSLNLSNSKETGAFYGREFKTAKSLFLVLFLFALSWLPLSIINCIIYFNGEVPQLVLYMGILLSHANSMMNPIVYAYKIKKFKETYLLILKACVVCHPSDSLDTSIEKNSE
Procedure: Transfection of chick atrial myocytes with the human A3 receptor—Atrial cells were cultured from chick embryos 14 days in ovo and transiently transfected with pcDNA3 (empty vector) or with pcDNA3/hA3R (full length cDNA encoding human adenosine A3 receptor subcloned in pcDNA3) using the calcium phosphate precipitation method. Forty-eight hours after transfection, the cells were exposed to the compounds of the invention and the percentage of myocytes killed during simulated ischemia was determined.
The transfected myocytes were then exposed to the compound for 5 minutes, which was followed by replacement with fresh media and myocytes exposed to normal conditions (non-ischemic) for 10 minutes prior to being exposed to ninety minutes of ischemia. The decrease in the number of myocytes killed in A3 receptor cDNA-transfected myocytes as compared to vector-transfected myocytes was plotted as a function of the concentration of the compound. This decrease in myocytes killed represented an index of the protection mediated via the human adenosine A3 receptor.

NCCNC(=O)Cc1ccc(NC(=O)Cc2ccc(Nc3ncnc4c3ncn4[C@@H]3O[C@H](CO)[C@@H](O)[C@H]3O)cc2)cc1 [ADAC, N^6-[4-[[[4-[[[(2-aminoethyl)amino]carbonyl]methyl]anilino]carbonyl]methyl]phenyl]adenosine]
Ki (A3 receptor; Compound 8 table): 4 nM | cardioprotective effect when present during prolonged hypoxia (CK released, % myocytes killed) [1]: able to protect the myocytes when present during the prolonged hypoxia

OC[C@H]1O[C@@H](n2cnc3c(NC4CCCC4)nc(Cl)nc32)[C@H](O)[C@@H]1O [CCPA, 2-chloro-N^6-cyclopentyladenosine]
% myocytes killed [2]: 22.1±1.5% | preconditioning / cardioprotective effect [3]: causes a pronounced cardioprotective effect in the cardiac myocyte | cardioprotective effect when present during prolonged hypoxia (CK released, % myocytes killed) [1]: caused a dose-dependent reduction in the percentage of myocytes killed

CNC(=O)[C@H]1O[C@@H](n2cnc3c(NCc4cccc(I)c4)nc(Cl)nc32)[C@H](O)[C@@H]1O [Cl-IB-MECA, 2-chloro-N^6-(3-iodobenzyl)adenosine-5′-N-methyluronamide]
% myocytes killed [2]: 23.0±1.4% | preconditioning / cardioprotective effect [3]: caused a potent cardioprotective effect | cardioprotective effect when present during prolonged hypoxia (CK released, % myocytes killed) [1]: capable of protecting the cardiac myocytes against hypoxia-induced injury | apoptotic cell death (DNA laddering) [4]: reduced apoptotic cell death of cardiac myocytes | apoptotic cell death in the presence of 2-methylthioATP ([4]; co-incubation, no ischemia): resulted in a decrease in apoptotic cell death | apoptosis (DNA laddering) ([4]; prolonged moderate ischemia, 17 hours with 2-3% O2): reduced apoptosis

CCNC(=O)C1OC(n2cnc3c(NC(=O)Nc4ccccc4C(F)(F)F)ncnc32)C(O)C1O (stereo not shown) [Compound 4d, N^6-((2-trifluoromethyl)carbamoyl)adenosine-5′-uronamide]
Ki (A3 receptor; Table II): 54 nM | Ki (A1 receptor): 384 nM | Ki (A2a receptor): > 10000 nM

CNC(=O)C1OC(n2cnc3c(NOc4ccccc4)ncnc32)C(O)C1O (stereo not drawn) [Compound 11, 6-(O-Phenylhydroxylamino)purine-9-beta-ribofuranoside-5′-N-methyluronamide]
Ki (A3 receptor; Table II): 1340 nM | Ki (A1 receptor): 2060 nM | Ki (A2a receptor): 66300 nM

CNC(=O)C1OC(n2cnc3c(NCc4cccc(I)c4)nc(NC)nc32)C(O)C1O (stereo not shown) [MRS 537]
preconditioning / protection mediated via human adenosine A3 receptor [5]: can exert the cardioprotective effect of preconditioning via the human adenosine A3 receptor | creatine kinase released during prolonged simulated ischemia [1]: cardioprotective effects

CNC(=O)C1CC(O)C(n2cnc3c(NCc4cccc(I)c4)nc(Cl)nc32)O1 (stereo not shown) [MRS 584]
preconditioning / protection mediated via human adenosine A3 receptor [5]: can exert the cardioprotective effect of preconditioning via the human adenosine A3 receptor | creatine kinase released during prolonged simulated ischemia [1]: cardioprotective effects

CCOC(=O)C1=C(C)NC(c2ccccc2)=C(C(=O)OCc2ccccc2)C1C#Cc1ccccc1 (stereo not shown) [MRS 1191, 3-ethyl-5-benzyl-2-methyl-6-phenyl-4-phenylethynyl-1,4-(1)-dihydropyridine-3,5-dicarboxylate]
effect of antagonist on A1 agonist (CCPA, CHA, ADAC)-induced cardioprotection ([1]; antagonist with A1 agonist during prolonged hypoxia): neither MRS 1191 nor MRS 1097 was able to block the CCPA-induced cardioprotection | effect of antagonist on A3 agonist (IB-MECA, Cl-IB-MECA)-induced cardioprotection ([1]; antagonist with A3 agonist during prolonged hypoxia): blocked the Cl-IB-MECA-induced cardioprotection | apoptotic cell death (DNA laddering) [4]: but not the A3 antagonist (MRS1191) reduced apoptotic cell death

CNC(=O)C1OC(n2cnc3c(NCc4cccc(C#CCNC(=O)CCC(=O)Nc5cccc(/C=C/c6nc7c(c(=O)n(C)c(=O)n7C)n6C)c5)c4)ncnc32)C(O)C1O (stereo not shown) [MRS 1528]
preconditioning / protection mediated via human adenosine A3 receptor [5]: can cause preconditioning of the cardiac myocytes via human adenosine A3 receptor | preconditioning effect in presence of A2a agonist CGS21680 ([3]; CGS21680 (0.3 μM)): protective effect of low concentrations of MRS1528 is attenuated by the A2a agonist CGS21680 whereas the protective effect of high concentrations of MRS1528 is not affected | preconditioning effect in presence of A2a antagonist CSC ([3]; CSC (1 μM)): unaffected by the A2a receptor antagonist CSC | preconditioning / cardioprotective effect [3]: can activate A3 receptor to induce preconditioning and can simultaneously block the A2a receptor to enhance its preconditioning effect

CNC(=O)C1OC(n2cnc3c(NCc4cccc(C#CCNC(=O)Cc5ccc(NC(=O)Cc6ccc(Nc7ncnc8c7ncn8C7OC(CO)C(O)C7O)cc6)cc5)c4)ncnc32)C(O)C1O (stereo not shown) [MRS 1543]
preconditioning / protection mediated via human adenosine A3 receptor [5]: can precondition and induces a cardioprotective effect via the human adenosine A3 receptor | protective effect in combined presence of DPCPX and MRS1191 ([3]; DPCPX (1 μM) plus MRS1191 (1 μM)): completely abolished the protective effect of MRS1543 | preconditioning / cardioprotective effect [3]: can pharmacologically precondition the cardiac myocyte and induce a potent cardioprotective effect | protective effect in presence of DPCPX ([3]; excess DPCPX (1 μM)): only partially blocked by A1 antagonist DPCPX | protective effect in presence of MRS1191 ([3]; excess MRS1191 (1 μM)): only partially attenuated by the A3 antagonist MRS1191

CCNC(=O)C1OC(n2cnc3c(NC4CCCCC4)ncnc32)C(O)C1O (stereo not shown) [N^6-cyclohexyl NECA, N6-cyclohexyl 5′-N-ethylcarboxamidoadenosine]
Ki (A3 receptor; Table II): 16 nM

From patent US6586413B2, “Methods and compositions for reducing ischemic injury of the heart by administering adenosine receptor agonists and antagonists” (The United States of America as represented by the …, priority 1999, dated 2003)
